Measured values as given in the supplement of paper PMC3621838.
± gives the standard deviation of the averaged measurements.

Test system: HEK293 NF-kB-luciferase reporter cells
Experiment: NF-kB luciferase reporter activity, robust Z-score vs plate median (robust Z-score (log luminescence)); higher = stronger NF-kB reporter activation
Details: TNF treatment time 8.5 h, transfection time 72 h
Method: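 Primary screen of an Ambion Pre-miR miRNA mimic library (miRBase v8.0, 1.6 pmol/well, 384-well, duplicate) reverse-transfected into HEK293 cells stably expressing a 5x NF-kB firefly luciferase reporter. After 72 h the cells were treated with vehicle or TNF (40 ng/mL) for 8.5 h and luminescence was read (BriteLite). Raw luminescence was log-transformed and converted to a robust Z-score per plate: (x - plate median)/plate MAD. Sequence given is the mature miRNA strand of the double-stranded mimic.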

Sequence	NF-kB luciferase reporter activity (TNF 0 ng/mL)	NF-kB luciferase reporter activity (TNF 40 ng/mL)
AAAAGCUGGGUUGAGAGGGCGAA	-0.418 ± 0.33	-0.74 ± 0.12
AAAAUGGUUCCCUUUAGAGUGUU	-1.7 ± 0.2	-2.14 ± 0.057
AAACAAACAUGGUGCACUUCUUU	-1.38 ± 0.64	-0.235 ± 0.099
AAACCGUUACCAUUACUGAGUUU	1.13 ± 0.58	0.947 ± 0.054
AAAGCGCUUCCCUUCAGAGUGU	0.00327 ± 0.13	0.467 ± 0.04
AAAGCGCUUCCCUUUGCUGGA	-0.603 ± 0.07	0.608 ± 0.072
AAAGCGCUUCUCUUUAGAGGA	-0.221 ± 1.4	0.82217 ± 0.00059
AAAGUGCAUCCUUUUAGAGGUUU	-0.831 ± 1	-0.425 ± 0.04
AAAGUGCAUCCUUUUAGAGUGUUAC	-1.8 ± 0.56	-0.116 ± 0.027
AAAGUGCAUCUUUUUAGAGGAU	-0.977 ± 0.6	-0.416 ± 0.079
AAAGUGCCUCCUUUUAGAGUGU	-1.14 ± 0.07	-0.561 ± 0.048
AAAGUGCUGCGACAUUUGAGCGU	-0.434 ± 0.93	-1.06 ± 0.19
AAAGUGCUUCCCUUUGGACUGU	-1.29 ± 0.15	-0.57 ± 0.16
AAAGUGCUUCCUUUUAGAGGC	-1.48 ± 0.11	-0.83 ± 0.031
AAAGUGCUUCCUUUUAGAGGG	-1.32 ± 0.33	-0.578 ± 0.11
AAAGUGCUUCCUUUUAGAGGGUU	-1.51 ± 0.46	-0.653 ± 0.033
AAAGUGCUUCCUUUUUGAGGG	-1.7 ± 0.2	-0.497 ± 0.23
AAAGUGCUUCUCUUUGGUGGGUU	-1.14 ± 0.07	-0.144 ± 0.11
AACACACCUGGUUAACCUCUUU	-1.14 ± 0.07	0.254 ± 0.15
AACAUUCAUUGUUGUCGGUGGGUU	0.371 ± 0.31	-0.631 ± 0.082
AACGCACUUCCCUUUAGAGUGU	0.317 ± 0.45	0.826 ± 0.073
AACGCGCUUCCCUAUAGAGGG	-0.412 ± 0.44	0.629 ± 0.15
AACUGGCCCUCAAAGUCCCGCUUU	1.11 ± 0.46	-0.934 ± 0.19
AACUGGCCUACAAAGUCCCAG	0.721 ± 0.19	-1.18 ± 0.17

Sequence	NF-kB luciferase reporter activity (TNF 0 ng/mL)	NF-kB luciferase reporter activity (TNF 40 ng/mL)
AAGUGCUGUCAUAGCUGAGGUC	-0.706 ± 0.31	-0.185 ± 0.21
AAGUGCUUCCUUUUAGAGGGUU	-1.7 ± 0.2	-1.29 ± 0.042
AAUAAUACAUGGUUGAUCUUU	-0.785 ± 0.09	0.0536 ± 0.043
AAUAUAACACAGAUGGCCUGU	0.148 ± 0.35	0.874 ± 0.29
AAUCAUACACGGUUGACCUAUU	0	-0.0786 ± 0.0065
AAUCAUACAGGGACAUCCAGUU	-0.326 ± 0.46	0.117 ± 0.12
AAUCCUUGGAACCUAGGUGUGAGU	0.598 ± 0.14	0.0708 ± 0.057
AAUCCUUUGUCCCUGGGUGAGA	0.375 ± 0.22	0.638 ± 0.062
AAUCGUACAGGGUCAUCCACUU	-0.187 ± 0.52	0.638 ± 0.17
AAUUGCACUUUAGCAAUGGUGA	0.232 ± 0.073	-0.707 ± 0.14
ACAAAGUGCUUCCCUUUAGAGU	-1.29 ± 0.15	-0.471 ± 0.097
ACAAAGUGCUUCCCUUUAGAGUGU	-0.845 ± 0.78	-0.799 ± 0.018
ACAUAGAGGAAAUUCCACGUUU	0.113 ± 0.85	-0.459 ± 0.0079
ACUAGACUGAAGCUCCUUGAGG	-0.0115 ± 0.13	0.7434 ± 0.0017
ACUCAAAAUGGGGGCGCUUUCC	-0.706 ± 0.31	0.907 ± 0.14
ACUGCCCUAAGUGCUCCUUCU	2.18 ± 0.41	0.608 ± 0.041
ACUUCACCUGGUCCACUAGCCGU	0.123 ± 0.3	0.86 ± 0.097
ACUUUAACAUGGAAGUGCUUUCU	-0.37 ± 0.4	0.272 ± 0.026
AGACCCUGGUCUGCACUCUAU	0.885 ± 0.42	0.7 ± 0.065
AGAGGCUGGCCGUGAUGAAUUC	0.912 ± 0.72	-1.96 ± 0.079
AGAGGUAGUAGGUUGCAUAGU	-0.2 ± 0.023	-1.24 ± 0.038
AGAGGUAUAGGGCAUGGGAAAA	-0.25 ± 0.57	-1.06 ± 0.24
AGAUCGACCGUGUUAUAUUCGC	0.225 ± 0.32	-0.0562 ± 0.026
AGCUCGGUCUGAGGCCCCUCAG	1.38 ± 0.13	-1.1 ± 0.24

Sequence	NF-kB luciferase reporter activity (TNF 0 ng/mL)	NF-kB luciferase reporter activity (TNF 40 ng/mL)
AGGACCUGCGGGACAAGAUUCUU	-0.175 ± 0.95	1.11 ± 0.19
AGGGCCCCCCCUCAAUCCUGU	1.69 ± 0.94	0.259 ± 0.1
AGGUUACCCGAGCAACUUUGCA	0.305 ± 0.58	-0.0618 ± 0.016
AGUGACAUCACAUAUACGGCAGC	-1.06 ± 0.48	-2.733 ± 0.0029
AGUGGGGAACCCUUCCAUGAGGA	-0.516 ± 0.47	-2.85 ± 0.1
AUAAGACGAGCAAAAAGCUUGU	-0.187 ± 0.52	-1.62 ± 0.032
AUCACACAAAGGCAACUUUUGU	-0.634 ± 0.41	-0.131 ± 0.049
AUCAGCAAACAUUUAUUGUGUG	-0.389 ± 0.14	-0.5 ± 0.044
AUCAUAGAGGAAAAUCCACGU	-0.604 ± 0.17	-0.743 ± 0.14
AUCAUAGAGGAAAAUCCAUGUU	-0.92 ± 0.38	-1.03 ± 0.066
AUCAUGAUGGGCUCCUCGGUGU	-0.346 ± 1.1	-0.71 ± 0.099
AUCCUUGCUAUCUGGGUGCUA	-0.588 ± 0.71	0.413 ± 0.069
AUCGGGAAUGUCGUGUCCGCC	1.11 ± 0.67	0.676 ± 0.033
AUCGUGCAUCCCUUUAGAGUGUU	4.42 ± 0.37	0.437 ± 0.046
AUCGUGCAUCCUUUUAGAGUGU	4.81 ± 0.46	0.331 ± 0.0088
AUGCACCUGGGCAAGGAUUCUG	-0.197 ± 0.13	1.14 ± 0.15
AUUACAUGGCCAAUCUC	0.0633 ± 0.4	0.754 ± 0.24
AUUCCUAGAAAUUGUUCAUA	0.0899 ± 0.13	0.855 ± 0.032
AUUCUGCAUUUUUAGCAAGU	3.61 ± 0.35	-0.325 ± 0.13
AUUGACACUUCUGUGAGUAG	-0.231 ± 0.69	-0.474 ± 0.021
CAAAGCGCUCCCCUUUAGAGGU	0	0.254 ± 0.098
CAAAGCGCUUCCCUUUGGAGC	0.207 ± 0.18	0.305 ± 0.0055
CAAAGCGCUUCUCUUUAGAGUG	-0.207 ± 0.29	0.143 ± 0.13
